We go through eight molecules from patent publication US10006064B2, “Biosynthetic pathways, recombinant cells, and methods” (REGENTS OF THE UNIVERSITY OF MINNESOTA, priority 2012, dated 2018).

In brackets after ≈: the same amount, converted by molar mass.

The conditions of series [1]: solubility in water / aqueous medium; cited from earlier work.
Series [2] relates to E. coli strain BW25113. Put plainly: Shake flask fermentation with candidate alcohol acyltransferases, isoamyl acetate production (GC-FID). The series is classed as cell-based. Particulars: strains identical except for the AAT, with leuABCD; 20 g/L glucose, 30° C., 48 hours. From the text: (§1) Each was cloned and transformed into E. coli strain BW25113 for analysis.
(§2) Three synthetic operons were constructed for gene expression to produce isobutyl acetate and isoamyl acetate (FIG. 5). All the plasmids were constructed to be under the regulation of PLlacO1 promoter. To produce isobutyl acetate, the first operon included four coding regions on a medium copy plasmid carrying kanamycin resistance marker in a transcriptional order ilvC-ilvD-alsS-AAT, with the ATT position being occupied by the coding region of one of the five exemplary acyltransferases (AAT) being analyzed. (FIG. 5(a)). The second operon included two coding regions on a high copy plasmid with an ampicillin resistance maker in a transcriptional order kivd-yqhD. For the synthesis of isoamyl acetate, the coding regions of leuA, leuB, leuC, and leuD involved in leucine biosynthesis were introduced in the first medium copy plasmid between alsS and AAT, and the same second high copy plasmid was used. (FIG. 5(b)).
(§3) We assessed the effect of each of the five exemplary acyltransferases on the production titers for isobutyl acetate and isoamyl acetate. […]
(§4) Shake flask fermentations were carried out for the recombinant strains. […] The produced medium-chain ester compounds were quantified by GC-FID (gas chromatography-flame ionization detector) analysis. […]

Series [3] relates to E. coli strain BW25113. Put plainly: Shake flask fermentation with candidate alcohol acyltransferases, isobutyl acetate production (GC-FID). The series is classed as cell-based. Particulars: strains identical except for the AAT; 20 g/L glucose, 30° C., 48 hours; ± standard deviation, three colonies.
Excerpt: as §1, §2, §3, §4

As for `CCO` [Ethanol], the Solubility result in series [1] is given as “miscible”. With `CCOC(C)=O` [Ethyl acetate], the Solubility in series [1] is 83000 µg/mL. Turning to `CCOC(=O)C(C)C` [Ethyl isobutyrate], the Solubility in series [1] was 3200 µg/mL (≈ 27.5 mM). For `CCOC(=O)CC(C)C` [Ethyl isovalerate], the Solubility in series [1] was 2000 µg/mL (≈ 15.4 mM). As to `CC(C)COC(=O)C(C)C` [isobutyl isobutyrate], the Solubility in series [1] was 500 µg/mL (≈ 3.47 mM). As to `CC(C)CC(=O)OC(=O)CC(C)C` [isovaleryl isovalerate], the Solubility result in series [1] was “insoluble”.

B1: ATF1: Alcohol acetyltransferase from S. cerevisiae, expressed in recombinant E. coli BW25113 (protein, listed as Saccharomyces cerevisiae)
chain: MDLWKRLFEANPTKIRDKKIKNGHFISITNTINLSALMNEIDEKNQAPVQQECLKEMIQNGHARRMGSVEDLYVALNRQNLYRNFCTYGELSDYCTRDQLTLALREICLKNPTLLHIVLPTRWPNHENYYRSSEYYSRPHPVHDYISVLQELKLSGVVLNEQPEYSAVMKQILEEFKNSKGSYTAKIFKLTTTLTIPYFGPTGPSWRLICLPEEHTEKWKKFIFVSNHCMSDGRSSIHFFHDLRDELNNIKTPPKKLDYIFKYEEDYQLLRKLPEPIEKVIDFRPPYLFIPKSLLSGFIYNHLRFSSKGVCMRMDDVEKTDDVVTEIINISPTEFQAIKANIKSNIQGKCTITPFLHVCWFVSLHRWGKFFKPLNFEWLTDIFIPADCRSQLPDDDEMRQMYRYGANVGFIDFTPWISEFDMNDNKENFWPLIEHYHEVISEALRNKKHLHGLGFNIQGFVQKYVNIDKVMCDRAIGKRRGGTLLSNVGLFNQLEEPDAKYSICDLAFGQFQGSWHQAFSLGVCSTNVKGMNIVVASTKNVVGSQESLEELCSIYKALLLGP
Regarding B1, the “isoamyl acetate production titer” value with E. coli strain BW25113 [2] is listed as “highest production titers”. For the same molecule, in the series on E. coli strain BW25113 [3], the “isobutyl acetate production titer” value was 2.14 ± 0.17 g/L.

B2: ATF2: Alcohol acetyltransferase from S. cerevisiae, expressed in recombinant E. coli BW25113 (protein, listed as Saccharomyces cerevisiae)
chain: MEDIEGYEPHITQELIDRGHARRMGHLENYFAVLSRQKMYSNFTVYAELNKGVNKRQLMLVLKVLLQKYSTLAHTIIPKHYPHHEAYYSSEEYLSKPFPQHDFIKVISHLEFDDLIMNNQPEYREVMEKISEQFKKDDFKVTNRLIELISPVIIPLGNPKRPNWRLICLPGKDTDGFETWKNFVYVTNHCGSDGVSGSNFFKDLALLFCKIEEKGFDYDEEFIEDQVIIDYDRDYTEISKLPKPITDRIDYKPALTSLPKFFLTTFIYEHCNFKTSSESTLTARYSPSSNANASYNYLLHFSTKQVEQIRAQIKKNVHDGCTLTPFIQACFLVALYRLDKLFTKSLLEYGFDVAIPSNARRFLPNDEELRDSYKYGSNVGGSHYAYLISSFDIPEGDNDKFWSLVEYYYDRFLESYDNGDHLIGLGVLQLDFIVENKNIDSLLANSYLHQQRGGAIISNTGLVSQDTTKPYYVRDLIFSQSAGALRFAFGLNVCSTNVNGMNMDMSVVQGTLRDRGEWESFCKLFYQTIGEFASL
As to B2, the “isoamyl acetate production titer” value in the series on E. coli strain BW25113 [2] is “highest production titers”. The “isobutyl acetate production titer” value in the series with E. coli strain BW25113 [3] is 1.69 ± 0.46 g/L.

For orientation: Solubility means the concentration that dissolves in the medium under given conditions.
